{"source": "patent US20120107423A1", "about": "“Methods of Using Inhaled Nitric Oxide Gas for Treatment of Acute Respiratory Distress Syndrome” (INO Therapeutics LLC, priority 2010, published 2012)", "key": {"[1]": {"tested_on": "patients with moderately severe acute lung injury (ALI) / ARDS survivors", "experiment": "Respiratory parameters during mechanical ventilation: cumulative exposure (AUC) over study gas administration", "type": "in vivo, human", "conditions": "for Duration of exposure: PaO2/FiO2 ratio: during study gas administration / length of mechanical ventilation", "experimental": "Baseline oxygenation measures included PaO2, arterial partial pressure of CO2 (PaCO2), SpO2, FiO2, PEEP, PaO2/FiO2 ratio, […], tidal volume, and mean airway pressure. Respiratory parameters (FiO2, PEEP, and PaO2/FiO2 ratio) were recorded on case report forms every 12 hours during mechanical ventilation.\n(§1) All between-group differences in PFT results were evaluated using the Wilcoxon rank sum test. Between-group differences in baseline clinical and demographic characteristics were assessed with the Fisher's exact test and the chi-square test for categorical variables and with the Wilcoxon rank sum test for continuous variables. Baseline oxygenation and respiratory/oxygenation parameters in the two groups were compared using Wilcoxon rank sum tests. The areas under the curve (AUCs) of FiO2, PEEP, and PaO2/FiO2 ratio were calculated using the trapezoidal rule. The null hypothesis that the respective AUCs were normally distributed was rejected employing the Shapiro-Wilk test. A Wilcoxon rank sum test was utilized to assess the differences in each median AUC between treatment groups. A p value <0.05 was considered significant."}, "[2]": {"tested_on": "experimental animals and ARDS patients", "conditions": "cited from earlier work"}, "[3]": {"tested_on": "ARDS patients", "conditions": "cited from earlier work"}, "[4]": {"tested_on": "patients with moderately severe Acute Lung Injury (ALI)", "experiment": "Safety results, adverse events in the initial 28-day study period", "type": "in vivo, human", "conditions": "iNO 5 ppm", "experimental": "(§2) A large-scale, randomized, blinded, placebo-controlled study was carried out in the Intensive Care Units (ICUs) of 46 US hospitals to evaluate the efficacy of low-dose (5 ppm) iNO in 385 patients with moderately severe Acute Lung Injury (ALI). The primary endpoint of this study was number of days alive and off assisted breathing.\nSafety results for the initial 28-day study period have been reported and are summarized briefly here. A total of 630 adverse events (AEs) were reported for patients treated with iNO versus 666 events for those who received placebo. Respiratory system AEs occurred in 51% versus 61% of patients receiving iNO and placebo, respectively, primarily due to higher frequencies of pneumonia, pneumothorax, and apnea in the placebo group."}, "[5]": {"tested_on": "patients with moderately severe acute lung injury (ALI) / ARDS survivors", "experiment": "Pulmonary function tests at 6 months post-treatment in ARDS survivors (iNO 5 ppm vs placebo)", "type": "in vivo, human", "experimental": "as §2\n(§3) Patients had moderately severe acute lung injury (ALI), defined by a modification of American-European Consensus Conference criteria (PaO2/inspired oxygen concentration [FiO2] ratio of ≦250 mm Hg), due to causes other than severe sepsis. Patients with evidence of non-pulmonary system failure at the time of randomization and sepsis-induced ARDS were excluded. Patients were also excluded if they had sustained hypotension requiring vasopressor support, hemodynamic profiles supporting severe sepsis, severe head injury, severe burns, or evidence of other significant organ system dysfunction at baseline.\n(§4) Patients were randomly assigned to receive either inhaled placebo gas (nitrogen) or 5 ppm of iNO (INO Therapeutics Inc., Port Allen, La.). All patients, healthcare professionals, and investigators were blinded to the assigned treatment. Inhaled NO was administered via INOvent® delivery system (Datex-Ohmeda, Madison, Wis.) that blended treatment gas (nitrogen or NO at 100-ppm balance nitrogen) 1:20 with ventilator gases to achieve a target ppm value in the inspiratory limb of the ventilator.\n(§5) All patients using the iNO delivery system received mechanical ventilatory support. Treatment continued with active or placebo gas until one of the following criteria were met: [1] end of trial (28 days); [2] death; or [3] adequate oxygenation (arterial oxygen saturation by pulse oximetry [SpO2]≧92% or PaO2 of ≧63 mm Hg) without treatment gas at ventilator settings of FiO2≦0.4 and positive end-expiratory pressure (PEEP) of ≦5 cm H2O. Decreases in treatment gas continued in 20% decrements (titrated down by 1 ppm for inhaled NO) every 30 minutes until either the treatment gas concentration reached 0% or oxygenation criteria were not satisfied. If oxygenation criteria were not met, treatment gas concentration was titrated up until they were again achieved. Increments of upward titration were determined by the clinician, based on degree of arterial desaturation.\nPulmonary function testing (PFT) at 6 months post-treatment was required in both iNO- and placebo-treated patients as part of the original study design. PFTs included forced expiratory volume in 1 second (FEV1), FEV1% predicted, forced vital capacity (FVC), FVC % predicted, the FEV1/FVC ratio, FEV1/FVC ratio % predicted, forced expiratory flow (FEF) from 25% to 75% of FVC (FEF25-75%), FEF25-75%% predicted, functional residual capacity (FRC), FRC % predicted, total lung capacity (TLC), TLC % predicted, CO diffusion, and CO diffusion % predicted.\nas §1\nA total of 92 of the 302 survivors (30%) were capable of and participated in the 6-month follow-up pulmonary function analysis (iNO, n=51; placebo, n=41). The balance of surviving subjects was lost to follow-up for reasons unknown, and PFT data are not available. […]"}, "[6]": {"conditions": "at STP; cited from earlier work"}, "[7]": {"tested_on": "patients with moderately severe Acute Lung Injury (ALI)", "experiment": "Randomized, blinded, placebo-controlled 28-day study of low-dose (5 ppm) iNO, intent-to-treat analysis", "type": "in vivo, human", "experimental": "as §2, §3, §4, §5"}, "[8]": {"conditions": "experimental animals and ARDS patients"}}, "data": [{"compound": "[N]=O", "note": "[Inhaled NO, nitric oxide]", "values": [{"measurement": "Duration of exposure: PaO2/FiO2 ratio", "setting": "[1]; mean ± SD", "result": "262 ± 407"}, {"measurement": "Duration of exposure: PaO2/FiO2 ratio", "setting": "[1]; mean ± SD, listed as iNO", "result": "2637±1729"}, {"measurement": "Duration of exposure: FiO2", "setting": "[1]; during study gas administration, mean ± SD, N = 51", "result": "6.34 ± 4.5"}, {"measurement": "Cumulative exposure to FiO2, PEEP and PaO2/FiO2 ratio, versus placebo", "setting": "[1]; over the length of mechanical ventilation", "result": "less cumulative exposure to all three variables"}, {"measurement": "Duration of exposure, total FiO2", "setting": "[1]; over the length of mechanical ventilation, mean ± SD", "result": "6.3 ± 4.5", "unit": "days"}, {"measurement": "Aggregate per-patient changes from baseline in supplemental oxygen, PEEP, or PaO2/FiO2 ratio, versus placebo", "setting": "[1]; through day 28 (FIG. 2a-c)", "result": "no significant differences between groups"}, {"measurement": "Formation of platelet-leukocyte aggregates", "setting": "[2]; correlated with NO-dependent inhibition of platelet P-selectin expression", "result": "significantly inhibiting"}, {"measurement": "Pulmonary concentrations of interleukin (IL)-8", "setting": "[2]; [8]", "result": "significantly decreases"}, {"measurement": "Pulmonary concentrations of neutrophils", "setting": "[2]; [8]", "result": "significantly decreases"}, {"measurement": "H2O2 production by polymorphonuclear leukocytes", "setting": "[3]", "result": "significantly decrease"}, {"measurement": "IL-6 concentration in BAL fluid", "setting": "[3]", "result": "decreased"}, {"measurement": "IL-8 concentration in BAL fluid", "setting": "[3]", "result": "decreased"}, {"measurement": "β2-integrin CD11b/CD18 expression by polymorphonuclear leukocytes", "setting": "[3]", "result": "significantly decrease"}, {"measurement": "Patients with respiratory system AEs", "setting": "[4]", "result": 51, "unit": "%"}, {"measurement": "Total adverse events (AEs) reported", "setting": "[4]", "result": 630, "unit": "events"}, {"measurement": "FRC, % predicted", "setting": "[5]; mean", "result": 93.98, "unit": "% predicted"}, {"measurement": "TLC", "setting": "[5]; mean", "result": 5.54, "unit": "L"}, {"measurement": "TLC, % predicted", "setting": "[5]; mean", "result": 93.33, "unit": "% predicted"}, {"measurement": "CO diffusion", "setting": "[5]; mean (SD)", "result": "18.25 (6.77) mL/min/mm Hg"}, {"measurement": "CO diffusion, % predicted", "setting": "[5]; mean (SD)", "result": "71.02 (20.79) % predicted"}, {"measurement": "FEF25/75%, % predicted", "setting": "[5]; mean (SD)", "result": "72.50 (27.71) % predicted"}, {"measurement": "FEV1, % predicted", "setting": "[5]; mean (SD)", "result": "80.23 (21.21) % predicted"}, {"measurement": "FEV1/FVC", "setting": "[5]; mean (SD)", "result": "77.45 (15.19) %"}, {"measurement": "FEV1/FVC, % predicted", "setting": "[5]; mean (SD)", "result": "96.14 (13.79) % predicted"}, {"measurement": "FRC", "setting": "[5]; mean (SD)", "result": "3.00 (0.94) L"}, {"measurement": "FVC", "setting": "[5]; mean (SD)", "result": "3.36 (1.09) L"}, {"measurement": "FVC, % predicted", "setting": "[5]; mean (SD)", "result": "83.78 (19.38) % predicted"}, {"measurement": "FEV1", "setting": "[5]; mean (SD), iNO 5 ppm up to 28 days", "result": "2.64 (0.91) L"}, {"measurement": "FEV1, % predicted", "setting": "[5]; mean (SD), listed as iNO", "result": "significantly greater"}, {"measurement": "FEV1/FVC, % predicted", "setting": "[5]; mean (SD), listed as iNO", "result": "significantly greater"}, {"measurement": "FVC, % predicted", "setting": "[5]; mean (SD), listed as iNO", "result": "significantly greater"}, {"measurement": "TLC", "setting": "[5]; mean, listed as iNO", "result": "significantly greater"}, {"measurement": "TLC, % predicted", "setting": "[5]; mean, listed as iNO", "result": "significantly greater"}, {"measurement": "Solubility in water", "setting": "[6]", "result": "about 2 mM"}, {"measurement": "Partial pressure of arterial oxygen (PaO2)", "setting": "[7]; initial 24 hours of treatment, p<0.05, resolved by 48 hours", "result": "significant increase"}, {"measurement": "Days alive and meeting oxygenation criteria for extubation, benefit versus control", "setting": "[7]; intent-to-treat", "result": "no significant benefit"}, {"measurement": "Mortality, benefit versus control (nitrogen gas)", "setting": "[7]; intent-to-treat, 5 ppm iNO, 385 patients", "result": "no significant benefit"}, {"measurement": "Days alive and off assisted breathing, benefit versus control", "setting": "[7]; intent-to-treat, primary endpoint", "result": "no significant benefit"}]}]}
